Reference: patent US10160748B2 (AbbVie Inc., priority 2015, dated 2018)

Biological target: TNFα trimer (Homo sapiens, UniProt P01375)
Experiment: TNFα FP Competitive Binding Assay
Settings: FP binding assay; 20 nM TNFα trimer, 1 nM OregonGreen488 probe; read-out: TNF IC50
Method: TNFα FP Competitive Binding Assay
• 1. Assay Buffer: Prepare 1× Assay Buffer (Water with 47 mM HEPES, 47 mM NaCl, 0.9 mM EDTA, 0.0071% Triton X-100) by adding 25 mL of 1 M HEPES, 5 mL of 5 M NaCl, 1 mL of 0.5 M EDTA, and 375 μL of a 10% Triton X-100 stock to a fresh 500 mL bottle of water. • 2. Assay Mixture: Prepare fresh Assay Mixture containing 20 nM TNFα trimer (60 nM protein) and 1 nM 2′,7′-difluoro-3′,6′-dihydroxy-N-(2-(2-(2-((4-(isoquinolin-8-yl)-3-(4-(isoquinolin-8-yl)phenethoxy)benzyl)oxy)ethoxy)ethoxy)ethyl)-3-oxo-3H-spiro[isobenzofuran-1,9′-xanthene]-5-carboxamide probe in 1× Assay Buffer. Compound Plate Preparation Manual 12-Point 1:3 Dilution Plates: (384 Well Polypropylene Plates)
Top concentration of compounds, 10 mM in DMSO, dispensed in rows A-O in columns 1 and 13. Compounds are serially diluted 1:3 with DMSO in columns 2-12 or 14-24 using a 16-channel Matrix pipettor. Plates stored at −20° C.
Discovery Preps 12-Point 1:3 Dilution Plates: (384 Well Assay Plates)
Top concentration, 5 mM in DMSO, of compounds placed in rows A-O in columns 1 and 13. Compounds are serially diluted 1:3 with DMSO in columns 2-12 or 14-24. Compound solutions are dispensed into replicate assay plates at 410 nL per well. Plates stored at 4° C.
TNFα FP Competitive Binding Assay Protocol
• 1. Compound plates warmed to rt. • 2. Fresh Assay Mixture is prepared. • 3. Assay Mixture (20 μL) is dispensed each well of 384 assay plates using a Thermo Multidrop Combi or 16-channel Matrix pipettor. If Manual 12-point 1:3 Dilution Plates are to be tested, Assay Mix is dispensed into empty plates. Discovery Preps 12-point 1:3 Dilution Plates already contain 410 nL compound solution in DMSO. • 4. For Manual 12-point 1:3 Dilution Plates, 0.7 μL is manually transferred using a 16-channel Matrix pipettor to replicate assay plates containing 20 μL Assay Mixture for a final top compound concentration of 338 μM (3.4% DMSO). • 5. For Discovery Preps 12-point 1:3 Dilution Plates, 20 μL Assay Mixture added the 410 nL compound solution already in the plates yields a final top compound concentration of 100 μM (2.0% DMSO). • 6. Background subtraction controls are wells P1-P8 containing only Assay Buffer. The low % inhibition controls are wells P9-P16 containing only Assay Mix. The high % inhibition are wells P17-P24 containing only 1 nM 2′,7′-difluoro-3′,6′-dihydroxy-N-(2-(2-(2-((4-(isoquinolin-8-yl)-3-(4-(isoquinolin-8-yl)phenethoxy)benzyl)oxy)ethoxy)ethoxy)ethyl)-3-oxo-3H-spiro[isobenzofuran-1,9′-xanthene]-5-carboxamide probe in 1× Assay Buffer. • 7. Plates are incubated at rt for 18-24 h in 37° C. incubator (CO2 is off). • 8. Prior to reading the assay, the plates are placed in a dark cabinet to equilibrate at rt for one hour. • 9. Background-subtracted fluorescence polarization (mP) is measured using a PerkinElmer Envision plate reader. • 10. Raw data is entered into Assay Explorer and dose-response curves are generated using a variable slope curve. Supplies, Materials, and Reagents

TNFα trimer, sequence (P01375 77-233 limits assumed): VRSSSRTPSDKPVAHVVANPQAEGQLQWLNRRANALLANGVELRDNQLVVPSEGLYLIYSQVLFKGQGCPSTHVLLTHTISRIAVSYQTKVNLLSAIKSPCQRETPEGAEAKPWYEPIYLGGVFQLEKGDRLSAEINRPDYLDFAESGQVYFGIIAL

CN1C[C@H]2CN(c3ncc(-c4ccc5c(=O)n(C)n(Cc6ccccc6OC(F)F)c5c4)cn3)CCN2C1=O [Example 34, (R)-7-(5-(1-(2-(Difluoromethoxy)benzyl)-2-methyl-3-oxo-2,3-dihydro-1H-indazol-6-yl)pyrimidin-2-yl)-2-methylhexahydroimidazo[1,5-a]pyrazin-3(2H)-one] and Cn1c(=O)c2ccc(-c3cnc(N4CCN5C(=O)NCC5C4)nc3)cc2n1Cc1ccccc1OC(F)F (centres unmarked) [Example 2.27, 7-(5-(1-(2-(Difluoromethoxy)benzyl)-2-methyl-3-oxo-2,3-dihydro-1H-indazol-6-yl)pyrimidin-2-yl)hexahydroimidazo[1,5-a]pyrazin-3(2H)-one] cannot be ordered by IC50: less than 1000 nM for the first, less than 1000 nM for the second.

C[C@@H]1CN(c2ncc(-c3ccc4c(=O)n(C)n(Cc5ccccc5Cl)c4c3F)cn2)CCN1C(=O)CO [Example 24.5] and C[C@@H]1CN(C(=O)CO)CCN1c1ncc(-c2ccc3c(=O)n(C)n(Cc4ccccc4OC(F)F)c3c2F)cn1 [Example 121, (R)-1-(2-(Difluoromethoxy)benzyl)-7-fluoro-6-(2-(4-(2-hydroxyacetyl)-2-methylpiperazin-1-yl)pyrimidin-5-yl)-2-methyl-1H-indazol-3(2H)-one] cannot be ordered by IC50: less than 1000 nM for the first, less than 1000 nM for the second.

C[C@@H]1CN(c2ncc(-c3ccc4c(=O)n(C)n(Cc5ccccc5OC(F)F)c4c3)cn2)CCN1C(=O)[C@@H]1COC(C)(C)O1 [Example 38* Step 1, 1-(2-(Difluoromethoxy)benzyl)-6-(2-((R)-4-((S)-2,2-dimethyl-1,3-dioxolane-4-carbonyl)-3-methylpiperazin-1-yl)pyrimidin-5-yl)-2-methyl-1H-indazol-3(2H)-one] and Cc1ccc(OC(F)F)c(Cn2c3cc(-c4cnc(N5CCN(C(=O)C6CCO6)[C@H](C)C5)nc4)ccc3c(=O)n2C)c1 (some centres unmarked) [Example 21.3] cannot be ordered by IC50: less than 1000 nM for the first, less than 1000 nM for the second.

First: Cc1ccc(OC(F)F)c(Cn2c3cc(-c4cnc(N5CCN6C(=O)OC[C@@H]6C5)nc4)ccc3c(=O)n2C)c1 [Example 20.2]
Second: CC(C)[C@H](N)C(=O)OCc1ccc(OC(F)F)c(Cn2c3cc(-c4cnc(N5CCN6C(=O)OC[C@@H]6C5)nc4)ccc3c(=O)n2C)c1 [Example 14.4]
The IC50 of the first is lower: less than 1000 nM for the first, 1000 to 10000 nM for the second.

COCC(=O)N1CCN(c2ncc(-c3ccc4c(=O)n(C)n(Cc5cc(C)ccc5OC(F)F)c4c3)cn2)C[C@H]1C [Example 21.1] and CC(=O)N1CCN(c2ncc(-c3ccc4c(=O)n(C)n(Cc5cc(C)ccc5OC(F)F)c4c3)cn2)C[C@H]1C (single isomer, unassigned) [Example 54] cannot be ordered by IC50: less than 1000 nM for the first, less than 1000 nM for the second.

First: Cc1ccc(C)c(Cn2c3cc(-c4cnc(N5CCOCC5)nc4)ccc3c(=O)n2C)c1 [Example 1.19]
Second: Cc1ccccc1Cn1c2cc(-c3cnc(N4CCOCC4)nc3)ccc2c(=O)n1C [Example 1.3]
The IC50 of the first is lower: less than 1000 nM for the first, 1000 to 10000 nM for the second. The first is the more potent here.

Cc1ccc(Cl)c(Cn2c3cc(-c4cnc(N5CCN6C(=O)NC[C@H]6C5)nc4)ccc3c(=O)n2C)c1 [Example 103, (S)-7-(5-(1(2-Chloro-5-methylbenzyl)-2-methyl-3-oxo-2,3-dihydro-1H-indazol-6-yl)pyrimidin-2-yl)hexahydroimidazo[1,5-a]pyrazin-3(2H)-one] and Cn1c(=O)c2ccc(-c3cnc(N4CCN5C(=O)NC[C@@H]5C4)nc3)cc2n1Cc1ccccc1OC(F)F (single isomer, unassigned) [Example 6] cannot be ordered by IC50: less than 1000 nM for the first, less than 1000 nM for the second.

First: Cc1ccc(OC(F)F)c(Cn2c3cc(C4=CCC(C(C)O)OC4)c(F)cc3c(=O)n2C)c1 (centres unmarked) [Example #131, 1-(2-(Difluoromethoxy)-5-methylbenzyl)-5-fluoro-6-(6-(1-hydroxyethyl)-5,6-dihydro-2H-pyran-3-yl)-2-methyl-1H-indazol-3(2H)-one]
Second: Cn1c(=O)c2cc(F)c(-c3cnc(C(C)(C)O)nc3)cc2n1Cc1cc(CC#N)ccc1OC(F)F [Example 100, 2-(4-(Difluoromethoxy)-3-((5-fluoro-6-(2-(2-hydroxypropan-2-yl)pyrimidin-5-yl)-2-methyl-3-oxo-2,3-dihydro-1H-indazol-1-yl)methyl)phenyl)acetonitrile]
The IC50 of the first is lower: less than 1000 nM for the first, 1000 to 10000 nM for the second. The first is the more potent here.

First: Cn1c(=O)c2ccc(-c3cnc(C(C)(C)O)nc3)cc2n1Cc1cc(NCC(C)(C)O)ccc1Cl [Example 122, 1-(2-Chloro-5-((2-hydroxy-2-methylpropyl)amino)benzyl)-6-(2-(2-hydroxypropan-2-yl)pyrimidin-5-yl)-2-methyl-1H-indazol-3(2H)-one]
Second: Cn1c(=O)c2ccc(-c3cnc(C(C)(C)O)nc3)cc2n1Cc1cc(NC2CCCc3c[nH]nc32)ccc1Cl (centres unmarked) [Example 44, 1-(2-Chloro-5-((4,5,6,7-tetrahydro-1H-indazol-7-yl)amino)benzyl)-6-(2-(2-hydroxypropan-2-yl)pyrimidin-5-yl)-2-methyl-1H-indazol-3(2H)-one]
The IC50 of the first is higher: 1000 to 10000 nM for the first, less than 1000 nM for the second.

Compared with COC(=O)NCc1ccc(OC(F)F)c(Cn2c3cc(-c4cnc(N5CCN(C(C)=O)[C@H](C)C5)nc4)ccc3c(=O)n2C)c1 [Example 27.2], CC(=O)NCc1ccc(OC(F)F)c(Cn2c3cc(-c4cnc(N5CCN(C(C)=O)[C@H](C)C5)nc4)ccc3c(=O)n2C)c1 [Example 27.1] is higher in IC50: less than 1000 nM for the first, 1000 to 10000 nM for the second.

First: CC(=O)N1CCN(c2ncc(-c3ccc4c(=O)n(C)n(Cc5cc(Cn6ccc(=O)[nH]6)ccc5OC(F)F)c4c3)cn2)C[C@H]1C [Example 101, (R)-6-(2-(4-Acetyl-3-methylpiperazin-1-yl)pyrimidin-5-yl)-1-(2-(difluoromethoxy)-5-((3-oxo-2,3-dihydro-H-pyrazol-1-yl)methyl)benzyl)-2-methyl-1,2-dihydro-3H-indazol-3-one]
Second: CC(=O)N1CCN(c2ncc(-c3ccc4c(=O)n(C)n(Cc5cc(C)ccc5OC(F)F)c4c3)cn2)C[C@@H]1C (single isomer, unassigned) [Example 55]
The IC50 of the first is higher: 1000 to 10000 nM for the first, less than 1000 nM for the second. The second is the more potent here.

CC(=O)N1CC[C@H](Nc2ncc(-c3ccc4c(=O)n(C)n(Cc5ccccc5OC(F)F)c4c3)cn2)C1 [Example 3, (S)-6-(2-((1-Acetylpyrrolidin-3-yl)amino)pyrimidin-5-yl)-1-(2-(difluoromethoxy)benzyl)-2-methyl-1H-indazol-3(2H)-one] and Cn1c(=O)c2ccc(-c3cnc(NCCO)nc3)cc2n1Cc1ccccc1OC(F)F [Example 2.12] fall in the same range of IC50: 1000 to 10000 nM for the first, 1000 to 10000 nM for the second.

First: Cn1c(=O)c2ccc(-c3cnc(N4CCNC(=O)C4)nc3)cc2n1Cc1ccccc1OC(F)F [Example 5.1]
Second: Cc1ccc(OC(F)F)c(Cn2c3cc(-c4cnc(N5CCN(C(=O)CC#N)[C@H](C)C5)nc4)ccc3c(=O)n2C)c1 [Example 21.4]
The IC50 of the first is higher: 1000 to 10000 nM for the first, less than 1000 nM for the second. The second is the more potent here.

CCN(Cc1ccc(OC(F)F)c(Cn2c3cc(-c4cnc(N5CCN(C(C)=O)[C@H](C)C5)nc4)ccc3c(=O)n2C)c1)C(C)=O [Example 94, (R)—N-(3-((6-(2-(4-Acetyl-3-methylpiperazin-1-yl)pyrimidin-5-yl)-2-methyl-3-oxo-2,3-dihydro-1H-indazol-1-yl)methyl)-4-(difluoromethoxy)benzyl)-N-ethylacetamide] and Cc1ccnc(C(C)n2c3cc(-c4cnc(N5CCN(C(=O)CO)[C@H](C)C5)nc4)ccc3c(=O)n2C)c1 (some centres unmarked) [Example 24.10] fall in the same range of IC50: 1000 to 10000 nM for the first, 1000 to 10000 nM for the second.

Cc1ccc(OC(F)F)c(Cn2c3cc(-c4cnn5c(C(C)O)cnc5c4)ccc3c(=O)n2C)c1 (racemic) [Example 106, 1-(2-(Difluoromethoxy)-5-methylbenzyl)-6-(3-(1-hydroxyethyl)imidazo[1,2-b]pyridazin-7-yl)-2-methyl-1H-indazol-3(2H)-one] and Cc1ccc(OC(F)F)c(Cn2c3c(F)c(-c4cnc(C(C)(C)O)nc4C)ccc3c(=O)n2C)c1 [Example 45, 1-(2-(Difluoromethoxy)-5-methylbenzyl)-7-fluoro-6-(2-(2-hydroxypropan-2-yl)-4-methylpyrimidin-5-yl)-2-methyl-1H-indazol-3(2H)-one] cannot be ordered by IC50: less than 1000 nM for the first, less than 1000 nM for the second.

Cn1c(=O)c2ccc(-c3cnc(N4CCOCC4)nc3)cc2n1Cc1c(Cl)cccc1Cl [Example 8.1] and Cn1c(=O)c2ccc(-c3cnc(N4CCOCC4)nc3)cc2n1Cc1ccccc1 [Example 1.10] fall in the same range of IC50: 1000 to 10000 nM for the first, 1000 to 10000 nM for the second.
